From patent US8871934B2, “Fluorene compound and pharmaceutical use thereof” (Japan Tobacco Inc., priority 2008, dated 2014)
pIC50: −log10 of the molar value. Where two headings read alike, the source gives them in different places.

Target: human PDHK2 (hPDHK2) (Homo sapiens (Human), UniProt Q15119)
Assay: Inhibitory action of PDHK activity in vitro (kinase reaction, residual PDH activity measured)
Format: biochemical
Method: In the case of human PDHK2 (hPDHK2, Genbank Accession No. NM_002611), modified hPDHK2 cDNA wherein FLAG-Tag sequence is added to the N terminal by a polymerase linkage reaction was prepared based on hPDHK2 cDNA clone (pReceiver-M01/PDK2-GeneCopoeia), and cloned into a vector (pET17b-Novagen). The recombinant construct was transformed into Escherichia coli (DH5α-TOYOBO). The recombinant clones were identified, plasmid DNA was isolated and subjected to the DNA sequence analysis. One clone which had the expected nucleic acid sequence was selected for expression work.
During the assay, the hPDHK2 enzyme concentration was set to the minimal concentration at which PDH is inhibited the most.
0.05 U/mL PDH (porcine heart PDH complex, Sigma P7032) and 1.6 μg/mL hPDHK2 were mixed in a buffer (50 mmol/L 3-morpholinopropanesulfonic acid (pH 7.0), 20 mmol/L dipotassium hydrogen phosphate, 60 mmol/L potassium chloride, 2 mmol/L magnesium chloride, 0.4 mmol/L EDTA, and 0.2% Pluronic F-68, 2 mmol/L dithiothreitol), the mixture was incubated at 4° C. overnight to give PDH/hPDHK2 complex. The test compound was diluted with dimethyl sulfoxide (DMSO). PDH/hPDHK2 complex (20 μL), test compound (1.5 μL) and 3.53 μmol/L ATP (diluted with buffer, 8.5 μL) were added to a half area 96 well UV-transparent microplate (Corning 3679), and PDHK reaction was performed at room temperature for 45 min. Instead of the test compound, DMSO (1.5 μL) was added to a control well. DMSO (1.5 μL) was added instead of the test compound to a blank well for the measurement of the maximum rate of PDH reaction, and hPDHK2 was not added. Than, 10 μL of substrates (5 mmol/L sodium pyruvate, 5 mmol/L Coenzyme A, 12 mmol/L NAD, and 5 mmol/L thiamine pyrophosphate, diluted with buffer) was added. The mixture was incubated at room temperature for 90 min, and the residual PDH activity was measured. The absorbance at 340 nm before and after PDH reaction was measured on a microplate reader to detect NADH produced by the PDH reaction. The PDHK inhibitory rate (%) of the test compound was calculated from the formula [{(PDH activity of test compound—PDH activity of control)/PDH activity of blank—PDH activity of control)}×100]. The IC50 value was calculated from the concentrations of the test compound at two points enclosing 50% inhibition of the PDHK activity.

[1] = PDHK inhibitory activity (class symbol)
[2] = read-out: PDHK inhibitory activity IC50
[3] = PDHK inhibitory activity, class symbol of IC50
[4] = PDHK inhibitory activity IC50 (μmol/L)

Row | Structure (SMILES) | pIC50 [1] | pIC50 [2] | pIC50 (read-out: PDHK inhibitory activity, class symbol of IC50) | pIC50 [3] | pIC50 [4]
1 | CC(C)(CC(=O)O)n1cc(-c2cc(F)cc3c2-c2ccccc2C3(O)C(F)(F)F)cn1 (single isomer, unassigned) [compound 610] | > 7.00 | 7.39 |  |  | 
2 | COc1cc(-c2cnn(C(C)(C)CC(=O)O)c2)c2c(c1)C(O)(C(F)(F)F)c1ccccc1-2 (single isomer, unassigned) [compound 614] | > 7.00 | 7.43 |  |  | 
3 | COC(=O)c1cc(Cl)cc2c1-c1ccccc1C2(O)C(F)(F)F (single isomer, unassigned) [compound 617] | > 7.00 | 7.08 |  |  | 
4 | COc1cc(-c2cnn(CC(C)(C)C(=O)O)c2)c2c(c1)C(O)(C(F)(F)F)c1ccccc1-2 (single isomer, unassigned) [compound 619] | > 7.00 | 7.48 |  |  | 
5 | OCCCCOc1cc(-c2cnn(CCO)c2)c2c(c1)C(O)(C(F)(F)F)c1ccccc1-2 (single isomer, unassigned) [compound 624] | > 7.00 | 7.85 |  |  | 
6 | CCn1cc(-c2cc(CO)c3c(c2)C(O)(C(F)(F)F)c2ccccc2-3)cn1 (single isomer, unassigned) [compound 629, 4-hydroxymethyl-2-(1-ethyl-1H-pyrazol-4-yl)-9-trifluoromethyl-9H-fluoren-9-ol] | > 7.00 | 7.35 |  |  | 
7 | COC(=O)c1cc(Cl)c2c(c1)C(O)(C(F)(F)F)c1ccccc1-2 (single isomer, unassigned) [compound 647, 4-chloro-9-hydroxy-9-trifluoromethyl-9H-fluorene-2-carboxylic acid methyl ester] | 6.00 to 7.00 | 6.77 |  |  | 
8 | O=C(c1cc(-c2cnn(CCO)c2)c2c(c1)C(O)(C(F)(F)F)c1ccccc1-2)N1CCCC1 (single isomer, unassigned) [compound 657] | > 7.00 | 7.70 |  |  | 
9 | CC(C)(C)Cn1cc(-c2cc(C(N)=O)c3c(c2)C(O)(C(F)(F)F)c2ccccc2-3)cn1 (single isomer, unassigned) [compound 659, 2-[1-(2,2-dimethyl-propyl)-1H-pyrazol-4-yl]-9-hydroxy-9-trifluoromethyl-9H-fluorene-4-carboxylic acid amide] | > 7.00 | 7.80 |  |  | 
10 | CC(C)(C)Cn1cc(-c2cc(CO)c3c(c2)C(O)(C(F)(F)F)c2ccccc2-3)cn1 (single isomer, unassigned) [compound 660, 2-[1-(2,2-dimethyl-propyl)-1H-pyrazol-4-yl]-4-hydroxymethyl-9-trifluoromethyl-9H-fluoren-9-ol] | > 7.00 | 7.77 |  |  | 
11 | Cc1cc(-c2cnn(CC(CO)CO)c2)c2c(c1)C(O)(C(F)(F)F)c1ccccc1-2 (single isomer, unassigned) [compound 663] | > 7.00 | 7.74 |  |  | 
12 | CC(C)=Cc1cc(-c2cnn(C(CO)CO)c2)c2c(c1)C(O)(C(F)(F)F)c1ccccc1-2 (single isomer, unassigned) [compound 664] | > 7.00 | 7.82 |  |  | 
13 | CC(C)Cc1cc(-c2cnn(C(CO)CO)c2)c2c(c1)C(O)(C(F)(F)F)c1ccccc1-2 (single isomer, unassigned) [compound 665] | > 7.00 | 7.64 |  |  | 
14 | NC(=O)c1cc(-c2cnn(CC3CCCCC3)c2)cc2c1-c1ccccc1C2(O)C(F)(F)F (single isomer, unassigned) [compound 667, 2-(1-cyclohexylmethyl-1H-pyrazol-4-yl)-9-hydroxy-9-trifluoromethyl-9H-fluorene-4-carboxylic acid amide] | > 7.00 | 7.82 |  |  | 
15 | OCc1cc(-c2cnn(CC3CCCCC3)c2)cc2c1-c1ccccc1C2(O)C(F)(F)F (single isomer, unassigned) [compound 668] | > 7.00 | 7.77 |  |  | 
16 | CC(C)(C)CCc1cc(-c2cnn(C(CO)CO)c2)c2c(c1)C(O)(C(F)(F)F)c1ccccc1-2 (single isomer, unassigned) [compound 669] | > 7.00 | 7.77 |  |  | 
17 | CC(C)(O)Cn1cc(-c2cc(F)cc3c2-c2ccccc2C3(O)C(F)(F)F)cn1 (single isomer, unassigned) [compound 674] | > 7.00 | 7.52 |  |  | 

Row | Structure (SMILES) | pIC50 [1] | pIC50 [2] | pIC50 (read-out: PDHK inhibitory activity, class symbol of IC50) | pIC50 [3] | pIC50 [4]
18 | OCC(CO)c1ncc(-c2cc(F)cc3c2-c2ccccc2C3(O)C(F)(F)F)o1 (single isomer, unassigned) [compound 682] | > 7.00 | 7.10 |  |  | 
19 | OCC(CO)c1noc(-c2cc(F)cc3c2-c2ccccc2C3(O)C(F)(F)F)n1 (single isomer, unassigned) [compound 685] | 6.00 to 7.00 | 6.47 |  |  | 
20 | CC(C)(O)C(C)(C)n1cc(-c2cc(F)cc3c2-c2ccccc2C3(O)C(F)(F)F)cn1 (single isomer, unassigned) [compound 687] | > 7.00 | 7.29 |  |  | 
21 | Cc1cc(-c2cnn(CCCc3nn[nH]n3)c2)c2c(c1)C(O)(C(F)(F)F)c1ccccc1-2 (single isomer, unassigned) [compound 691] | > 7.00 | 7.52 |  |  | 
22 | CC(CO)(CO)n1cc(-c2cccc3c2-c2ccccc2C3(O)C(F)(F)F)cn1 (single isomer, unassigned) [compound 702] | > 7.00 | 7.52 |  |  | 
23 | OCC(CO)(CO)n1cc(-c2cccc3c2-c2ccccc2C3(O)C(F)(F)F)cn1 (single isomer, unassigned) [compound 706] | > 7.00 | 7.51 |  |  | 
24 | OC1(C(F)(F)F)c2ccccc2-c2c(Cl)cc(F)cc21 (single isomer, unassigned; (+)) [Compound No. 526, (+)-4-chloro-2-fluoro-9-trifluoromethyl-9H-fluoren-9-ol] |  | 6.40 | 6.00 to 7.00 |  | 
25 | Cc1cc(-c2cnn(CCC(=O)O)c2)c2c(c1)C(O)(C(F)(F)F)c1ccccc1-2 (single isomer, unassigned; (+)) [compound 538, (+)-3-[4-(9-hydroxy-2-methyl-9-trifluoromethyl-9H-fluoren-4-yl)-pyrazol-1-yl]-propionic acid] |  | 7.59 |  | > 7.00 | 
26 | Cc1cc(-c2cnn(CCCC(=O)O)c2)c2c(c1)C(O)(C(F)(F)F)c1ccccc1-2 (single isomer, unassigned; (+)) [compound 539, (+)-4-[4-(9-hydroxy-2-methyl-9-trifluoromethyl-9H-fluoren-4-yl)-pyrazol-1-yl]-butyric acid] |  | 7.57 |  | > 7.00 | 
27 | OCC(CO)n1cc(-c2cc(F)cc3c2-c2ccccc2C3(O)C(F)(F)F)cn1 (single isomer, unassigned; (+)) [compound 595, (+)-2-[4-(2-fluoro-9-hydroxy-9-trifluoromethyl-9H-fluoren-4-yl)-pyrazol-1-yl]-propane-1,3-diol] |  | 7.66 |  | > 7.00 | 
28 | CC(CO)(CO)n1cc(-c2cc(F)cc3c2-c2ccccc2C3(O)C(F)(F)F)cn1 (single isomer, unassigned; (+)) [compound 673, (+)-2-[4-(2-fluoro-9-hydroxy-9-trifluoromethyl-9H-fluoren-4-yl)-pyrazol-1-yl]-2-methyl-propane-1,3-diol] | > 7.00 | 7.66 |  |  | 
29 | OCC(CO)(CO)n1cc(-c2cc(F)cc3c2-c2ccccc2C3(O)C(F)(F)F)cn1 (single isomer, unassigned; (+)) [compound 703, (+)-2-[4-(2-fluoro-9-hydroxy-9-trifluoromethyl-9H-fluoren-4-yl)-pyrazol-1-yl]-2-hydroxymethyl-propane-1,3-diol] | > 7.00 | 7.70 |  |  | 
30 | CCn1cc(-c2cc(C(N)=O)c3c(c2)C(O)(C(F)(F)F)c2ccccc2-3)cn1 (single isomer, unassigned; (-)) [compound 630, (−)-2-(1-ethyl-1H-pyrazol-4-yl)-9-hydroxy-9-trifluoromethyl-9H-fluorene-4-carboxylic acid amide] | > 7.00 | 7.70 |  |  | 
31 | Cc1cc(Cl)c2c(c1)[C@](O)(C(F)(F)F)c1ccccc1-2 (stereo in doubt) [compound 520] |  |  |  | < 6.00 | 5.48
32 | Cc1cc(-c2cnn(CCO)c2)c2c(c1)[C@@](O)(C(F)(F)F)c1ccccc1-2 (stereo in doubt) [compound 529] |  |  |  | > 7.00 | 7.77
33 | OCCn1cc(-c2cc(F)cc3c2-c2ccccc2[C@]3(O)C(F)(F)F)cn1 (stereo in doubt) [compound 531] |  |  |  | > 7.00 | 7.70
34 | Cc1cc(-c2cnn(CC(N)=O)c2)c2c(c1)[C@@](O)(C(F)(F)F)c1ccccc1-2 (stereo in doubt) [compound 532] |  |  |  | > 7.00 | 7.80
